# Assay results taken from patent US10799522B2, “Compositions and methods relating to galectin detection” (Wayne State University, priority 2015, dated 2020).
# Assay: radiation dosimetry estimates for human patients
# Settings: adult male
smiles,measurement,setting,value
"OCC1OC(SC2OC(CO)C(O)C(n3cc(-c4cccc([18F])c4)nn3)C2O)C(O)C(n2cc(-c3cccc(F)c3)nn2)C1O [[^18F]FPTDG, 3-(3-[^18F]fluorophenyltriazolyl)-3-deoxy-3′-(3-fluorophenyltriazolyl)-3′-deoxy-1-thio-β-D-digalactopyranoside]",Effective Dose,,Effective Dose 6.74 mSv per 370 MBq dose or 10 mCi
same,Effective Dose Equivalent,,Effective Dose Equivalent 6.12 mSv per 370 MBq dose or 10 mCi
same,"Estimated organ dose, Alpha",Total Body,0 mSv per 370 MBq dose or 10 mCi
same,"Estimated organ dose, Beta",Total Body,1.79 mSv per 370 MBq dose or 10 mCi
same,"Estimated organ dose, ED Cont.",Total Body,0.00 mSv per 370 MBq dose or 10 mCi
same,"Estimated organ dose, EDE Cont.",Total Body,0.00 mSv per 370 MBq dose or 10 mCi
same,"Estimated organ dose, Photon",Total Body,2.67 mSv per 370 MBq dose or 10 mCi
same,"Estimated organ dose, Total",Total Body,4.46 mSv per 370 MBq dose or 10 mCi
same,"Estimated organ dose, Alpha",target organ Adrenals,0 mSv per 370 MBq dose or 10 mCi
same,"Estimated organ dose, Beta",target organ Adrenals,1.70 mSv per 370 MBq dose or 10 mCi
same,"Estimated organ dose, ED Cont.",target organ Adrenals,0.03 mSv per 370 MBq dose or 10 mCi
same,"Estimated organ dose, EDE Cont.",target organ Adrenals,0.00 mSv per 370 MBq dose or 10 mCi
same,"Estimated organ dose, Photon",target organ Adrenals,3.33 mSv per 370 MBq dose or 10 mCi
same,"Estimated organ dose, Total",target organ Adrenals,5.03 mSv per 370 MBq dose or 10 mCi
same,"Estimated organ dose, Alpha",target organ Brain,0 mSv per 370 MBq dose or 10 mCi
same,"Estimated organ dose, Beta",target organ Brain,1.70 mSv per 370 MBq dose or 10 mCi
same,"Estimated organ dose, ED Cont.",target organ Brain,0.02 mSv per 370 MBq dose or 10 mCi
same,"Estimated organ dose, EDE Cont.",target organ Brain,0.00 mSv per 370 MBq dose or 10 mCi
same,"Estimated organ dose, Photon",target organ Brain,2.22 mSv per 370 MBq dose or 10 mCi
same,"Estimated organ dose, Total",target organ Brain,3.92 mSv per 370 MBq dose or 10 mCi
same,"Estimated organ dose, Alpha",target organ Breasts,0 mSv per 370 MBq dose or 10 mCi
same,"Estimated organ dose, Beta",target organ Breasts,1.70 mSv per 370 MBq dose or 10 mCi
same,"Estimated organ dose, ED Cont.",target organ Breasts,0.18 mSv per 370 MBq dose or 10 mCi
same,"Estimated organ dose, EDE Cont.",target organ Breasts,0.54 mSv per 370 MBq dose or 10 mCi
same,"Estimated organ dose, Photon",target organ Breasts,1.87 mSv per 370 MBq dose or 10 mCi
same,"Estimated organ dose, Total",target organ Breasts,3.57 mSv per 370 MBq dose or 10 mCi
same,"Estimated organ dose, Alpha",target organ Gallbladder Wall,0 mSv per 370 MBq dose or 10 mCi
same,"Estimated organ dose, Beta",target organ Gallbladder Wall,1.70 mSv per 370 MBq dose or 10 mCi
same,"Estimated organ dose, ED Cont.",target organ Gallbladder Wall,0.00 mSv per 370 MBq dose or 10 mCi
same,"Estimated organ dose, EDE Cont.",target organ Gallbladder Wall,0.00 mSv per 370 MBq dose or 10 mCi
same,"Estimated organ dose, Photon",target organ Gallbladder Wall,3.7 mSv per 370 MBq dose or 10 mCi
same,"Estimated organ dose, Total",target organ Gallbladder Wall,5.40 mSv per 370 MBq dose or 10 mCi
same,"Estimated organ dose, Alpha",target organ Heart Wall,0 mSv per 370 MBq dose or 10 mCi
same,"Estimated organ dose, Beta",target organ Heart Wall,1.72 mSv per 370 MBq dose or 10 mCi
same,"Estimated organ dose, ED Cont.",target organ Heart Wall,0.00 mSv per 370 MBq dose or 10 mCi
same,"Estimated organ dose, EDE Cont.",target organ Heart Wall,0.00 mSv per 370 MBq dose or 10 mCi
same,"Estimated organ dose, Photon",target organ Heart Wall,2.76 mSv per 370 MBq dose or 10 mCi
same,"Estimated organ dose, Total",target organ Heart Wall,4.48 mSv per 370 MBq dose or 10 mCi
same,"Estimated organ dose, Alpha",target organ Kidneys,0 mSv per 370 MBq dose or 10 mCi
same,"Estimated organ dose, Beta",target organ Kidneys,1.70 mSv per 370 MBq dose or 10 mCi
same,"Estimated organ dose, ED Cont.",target organ Kidneys,0.02 mSv per 370 MBq dose or 10 mCi
same,"Estimated organ dose, EDE Cont.",target organ Kidneys,0.00 mSv per 370 MBq dose or 10 mCi
same,"Estimated organ dose, Photon",target organ Kidneys,3.24 mSv per 370 MBq dose or 10 mCi
same,"Estimated organ dose, Total",target organ Kidneys,4.94 mSv per 370 MBq dose or 10 mCi
same,"Estimated organ dose, Alpha",target organ LLI Wall,0 mSv per 370 MBq dose or 10 mCi
same,"Estimated organ dose, Beta",target organ LLI Wall,9.25 mSv per 370 MBq dose or 10 mCi
same,"Estimated organ dose, ED Cont.",target organ LLI Wall,1.72 mSv per 370 MBq dose or 10 mCi
same,"Estimated organ dose, EDE Cont.",target organ LLI Wall,0.86 mSv per 370 MBq dose or 10 mCi
same,"Estimated organ dose, Photon",target organ LLI Wall,5.06 mSv per 370 MBq dose or 10 mCi
same,"Estimated organ dose, Total",target organ LLI Wall,14.30 mSv per 370 MBq dose or 10 mCi
same,"Estimated organ dose, Alpha",target organ Liver,0 mSv per 370 MBq dose or 10 mCi
same,"Estimated organ dose, Beta",target organ Liver,1.30 mSv per 370 MBq dose or 10 mCi
same,"Estimated organ dose, ED Cont.",target organ Liver,0.20 mSv per 370 MBq dose or 10 mCi
same,"Estimated organ dose, EDE Cont.",target organ Liver,0.00 mSv per 370 MBq dose or 10 mCi
same,"Estimated organ dose, Photon",target organ Liver,2.79 mSv per 370 MBq dose or 10 mCi
same,"Estimated organ dose, Total",target organ Liver,4.08 mSv per 370 MBq dose or 10 mCi
same,"Estimated organ dose, Alpha",target organ Lungs,0 mSv per 370 MBq dose or 10 mCi
same,"Estimated organ dose, Beta",target organ Lungs,0.03 mSv per 370 MBq dose or 10 mCi
same,"Estimated organ dose, ED Cont.",target organ Lungs,0.28 mSv per 370 MBq dose or 10 mCi
same,"Estimated organ dose, EDE Cont.",target organ Lungs,0.28 mSv per 370 MBq dose or 10 mCi
same,"Estimated organ dose, Photon",target organ Lungs,2.26 mSv per 370 MBq dose or 10 mCi
same,"Estimated organ dose, Total",target organ Lungs,2.29 mSv per 370 MBq dose or 10 mCi
same,"Estimated organ dose, Alpha",target organ Muscle,0 mSv per 370 MBq dose or 10 mCi
same,"Estimated organ dose, Beta",target organ Muscle,1.70 mSv per 370 MBq dose or 10 mCi
same,"Estimated organ dose, ED Cont.",target organ Muscle,0.02 mSv per 370 MBq dose or 10 mCi
same,"Estimated organ dose, EDE Cont.",target organ Muscle,0.00 mSv per 370 MBq dose or 10 mCi
same,"Estimated organ dose, Photon",target organ Muscle,2.68 mSv per 370 MBq dose or 10 mCi
same,"Estimated organ dose, Total",target organ Muscle,4.38 mSv per 370 MBq dose or 10 mCi
same,"Estimated organ dose, Alpha",target organ Osteogenic Cells,0 mSv per 370 MBq dose or 10 mCi
same,"Estimated organ dose, Beta",target organ Osteogenic Cells,3.64 mSv per 370 MBq dose or 10 mCi
same,"Estimated organ dose, ED Cont.",target organ Osteogenic Cells,0.07 mSv per 370 MBq dose or 10 mCi
same,"Estimated organ dose, EDE Cont.",target organ Osteogenic Cells,0.21 mSv per 370 MBq dose or 10 mCi
same,"Estimated organ dose, Photon",target organ Osteogenic Cells,3.17 mSv per 370 MBq dose or 10 mCi
same,"Estimated organ dose, Total",target organ Osteogenic Cells,6.82 mSv per 370 MBq dose or 10 mCi
same,"Estimated organ dose, Alpha",target organ Ovaries,0 mSv per 370 MBq dose or 10 mCi
same,"Estimated organ dose, Beta",target organ Ovaries,1.70 mSv per 370 MBq dose or 10 mCi
